Literature values, collected in patent US6472398B1, “Spiropiperidine derivatives as melanocortin receptor agonists” (Merck & Co., Inc., priority 2000, dated 2002).

Tests used:
[1] = system: patients with erectile dysfunction; conditions: for duration of effect / onset of action: after an oral dose; for share of patients with adequate response: oral, men with erectile dysfunction
rodents = conditions: ICV; NPY, ob/ob, agouti, fasted feeding models
[2] = system: males with psychogenic erectile dysfunction

Molecule	duration of effect [1]	onset of action [1] [min]	share of patients with adequate response [1]	effect on food intake (rodents)	duration of action ([2]; in vivo)	time to onset of erection ([2]; in vivo) [min]	absorption into the systemic circulation ([2]; in vivo, po)	response rate ([2]; injected intramuscularly or subcutaneously) [%]
Cc1ccc(N(CC2=NCCN2)c2cccc(O)c2)cc1 [phentolamine]	2 h	5 to 30	35-40%	–	–	–	–	–
CCCc1nn(C)c2c(=O)[nH]c(-c3cc(S(=O)(=O)N4CCN(C)CC4)ccc3OCC)nc12 [sildenafil]	about 4 hours	30 to 60	about 70%	–	–	–	–	–
Ac-Nle-c[Asp-His-DPhe-Arg-Trp-Lys]-NH2 [MT-II]	–	–	–	reduces food intake	approximately 2.5 hours	10 to 20	not absorbed into the systemic circulation	75
SHU-9119	–	–	–	reverses this effect and can induce hyperphagia	–	–	–	–
